This passage reports T/C results from PubChem BioAssay AID230 (DTP/NCI, 2004).

The test system of this assay is C3H/He mice, Gardner lymphosarcoma 6C3HED ip, survival T/C. The experiment in a line: NCI In Vivo Anticancer Drug Screen. Data for tumor model Lymphosarcoma Gardner 6C3HED (intraperitoneal) in C3H/He mice. Conditions: endpoint: survival time, mean or median, schedule: Q01DX010 (ip), vehicle: saline, higher = longer survival. As for the experimental part:
The antitumor activity of compounds was measured in mice bearing transplantable tumors. Survival or tumor size were measured and the results are expressed as the measurement made in the treated group (T) divided by the measurement made in the vehicle treated control group (C). The tumor model used in this assay is Lymphosarcoma Gardner 6C3HED (intraperitoneal) in C3H/He mice

Where “and” joins values, the source holds several entries; their conditions need not be identical. Equal values may be shown once. Inconclusive results and toxic doses are left out.

Consider `NC(=O)N(CCCl)N=O`, for which the T/C runs as follows: (dose: 0.5 mg/kg/injection) 204 % of control; (dose: 1.0 mg/kg/injection) 228 % of control; (dose: 2.0 mg/kg/injection) 161 % of control; (dose: 4.0 mg/kg/injection) 100 % of control.

For the compound `CC(=O)Nc1ccc2nc3ccc(NC(C)=O)cc3[n+](-c3ccccc3)c2c1`, the T/C by setting is: (dose: 12.5 mg/kg/injection) 107 % of control; (dose: 25.0 mg/kg/injection) 107 % of control; (dose: 100.0 mg/kg/injection) 89 % of control.

`CCOC(=O)NP(=O)(N1CC1)N1CC1`: the T/C was 100 % of control and 107 % of control (dose: 2.5 mg/kg/injection); 107 % of control and 117 % of control (dose: 5.0 mg/kg/injection); 157 % of control (dose: 10.0 mg/kg/injection); 92 % of control and 103 % of control (dose: 20.0 mg/kg/injection).
